Where two headings read alike, the source gives them in different places. Marks after values point to notes of the source that are not given here. Values belong to the compound of their own block, whether it stands above or below them.
Legend:
GLP-1 receptor = molecular target: T1, GLP-1 receptor (Homo sapiens, UniProt P43220); assay: Receptor arrestin translocation assay (GLP-1 potentiator activity, U2OS cells transfected with GLP-1 receptor gene); assay type: cell-based
T1 construct: expressed in transfected cells; host or cells: U2OS (human bone osteosarcoma)
Method: For example, these cells may be plated as monolayer on a test plate (e.g., a 384-well plate). The cells, for example, may be plated at a density of 4000 cells per well. The test sample concentrations may be 0.2-0.000002 mg/ml. The test volumes may be 25 microliter, and the test time may be 1 hr.
GLP-1 receptors are G-protein coupled receptors with seven transmembrane domains. After activation by hormones or neural stimulants, many G-protein coupled cell surface receptors will internalize from the cell surface to the cytoplasm in endocytosis responses. […] This process may be used to assay the test samples. The extents of receptor endocytosis are closely related to the concentrations of the test samples—the higher the sample concentrations, the stronger the endocytosis responses. Because the densities of cell surface receptors are fixed, when the sample concentrations reach a high number, the extents of endocytosis responses would not increase with increasing sample concentrations, i.e., the response reaches saturation. Based on the concentrations and saturation measurements, one can determine the receptor binding affinities of the test samples.
After activation of G-protein coupled receptors, the receptors are typically desensitized or inactivated. Arrestin is involved in such desensitization or inactivation processes. That is, arrestin will be recruited to the GPCR to desensitize or inactivate the receptors. Therefore, monitoring the translocation of GFP-tagged arrestin from the cytosol to the activated GPCRs on the plasma membrane would allow one to measure the binding of test compounds to the receptor target. (Hudson et al., “High-content screening of know G protein-coupled receptors by arrestin translocation,” Methods Enzymol., 414: 63-78 (2006)).
Using this assay, the following test samples have been assessed: (a) compound 1 (MW 318), (b) compound 2 (MW 318), (c) compound 3 (MW 334), (d) compound 5 (MW 304), (e) compound 6 (MW 376). […] When the sample concentrations reach certain high concentrations, the extents of endocytosis responses will not further increase with increasing sample concentrations because the responses have reached saturation.
Based on the binding curves and saturation measurements as a function of test sample concentrations, the receptor affinities of the test samples can be determined.

RINm5F cells = assay: Insulin secretion tests in rat pancreatic beta cells RINm5F; assay type: cell-based; settings: 2 hours, FIG. 4; for insulin secretion with exendin-4: 16 mM glucose, ELISA; for effect on insulin secretion in the absence of exendin-4: no exendin-4, 16 mM glucose
Method: Rat pancreatic beta cell line RINm5F was purchased from the Food Industry Research and Development Institute (Hsinchu, Taiwan), No. BCRC 60410; source: ATCC CRL-11 605. The cells are cultured in 10% FBS RPMI-1640 medium, in a constant temperature CO2 incubator, under 5% CO2, 37° C. and 95% humidity, for subsequent experiments.
To each 96-well plate, add the RINm5F cells (8×10^5 cells/well) and culture the cells for 2 days before the experiments. Before testing, remove the culture medium. To each well in the 96-well plates, add 100 ul of KRPH buffer (136 mM NaCl, 4.8 mM KCl, 1.2 mM CaCl2, 1.2 mM KH2PO4, 1.2 mM MgSO4, 5 mM NaHCO3, 10 mM HEPES), 2.8 mM D-glucose, 0.2% bovine serum albumin, pH 7.4, placed in a CO2 incubator at 37° C. for 30 minutes, to allow the pancreatic islet cells to acclimate to the medium change (from RPMI 1640 to KRPH buffer). Remove the 96-well plates from the incubator. […] Incubate the cells in KRPH buffer and glucose (KRPH +0.2% BSA, 16 mM glucose) containing culture medium for 2 hours to allow for insulin secretion by the islet beta cells under glucose stimulation. The supernatants from the incubation are collected and the concentrations of insulin released in the wells are assayed using ELISA. Various insulin ELISA kits are available from commercial sources, such as Calbiotech (Spring Valley, Calif.), Crystal Chem., Inc. (Downers Grove, Ill.), and Mercodia (Uppsala, Sweden).
Two days after inoculating RINm5F cells, about 8×10^5 cells/well in 96-well plates, add the active ingredients, compounds 1, 2, and 3, from wild ginger flower 95% ethanol extracts, to the cells. […] After 2 hours, the insulin contents in the supernatants are assessed using insulin ELISA kits.

normal mice = assay: Intraperitoneal glucose tolerance test (IPGTT) in normal mice; assay type: in vivo, C57BL/6J mice; settings: for hypoglycemic effects: oral, normal mice IPGTT; for Blood glucose concentration: mean±SEM
Method: In this example, in vivo IPGTT is used to validate the blood glucose lowering activity of compound 1 (purity 70%). Twenty-four (24) six weeks old C57BL/6J mice are fed normal diets in an environment of 12/12 light-dark cycles and a constant temperature controlled at 24±2° C. with an unlimited supply of water and food. The mice are divided into four groups of six each, including a control group and three compound 1 (purity 70%) groups. The three compound 1 groups are respectively given orally compound 1 at dosages of 40 mg/Kg, 60 mg/Kg, and 80 mg/Kg. Mice fasted overnight are allowed to eat for 1 hour. After feeding, wait for another hour before giving the test drugs. Thirty (30) minutes after drug administration, glucose at a dose of 1.5 g/kg body weigh is injected intraperitoneally. Blood glucose levels are measured before the glucose injection (0 minutes), as well as at 30, 60 and 90 minutes after the glucose injection, to observe the blood glucose level change curves.
As shown in FIG. 5 and summarized in the Table below, data are expressed as mean±standard error (SEM). P values are calculated using the t test in the Sigma statistical software, wherein p<0.05 is considered significant and marked as *; p<0.01 is considered highly significant and is marked as **; and p≦0.001 is considered extremely significant and marked as ***.

T1 sequence (P43220 24-463, species assumed): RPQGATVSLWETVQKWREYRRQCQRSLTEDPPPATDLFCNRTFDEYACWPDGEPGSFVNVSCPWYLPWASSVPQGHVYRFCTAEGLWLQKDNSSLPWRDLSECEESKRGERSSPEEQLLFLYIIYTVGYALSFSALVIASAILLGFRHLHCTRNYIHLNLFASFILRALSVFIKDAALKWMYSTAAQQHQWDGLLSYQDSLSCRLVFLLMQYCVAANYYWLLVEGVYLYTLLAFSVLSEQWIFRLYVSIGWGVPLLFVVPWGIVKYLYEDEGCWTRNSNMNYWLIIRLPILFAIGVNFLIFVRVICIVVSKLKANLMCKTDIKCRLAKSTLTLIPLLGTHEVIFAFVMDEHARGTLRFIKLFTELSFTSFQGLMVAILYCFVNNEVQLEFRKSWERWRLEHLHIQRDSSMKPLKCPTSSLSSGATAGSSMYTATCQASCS

EC50 (GLP-1 receptor; read-out: EC50 (converted)): 8.14 µM
Compound: C=C1CCC2C(C)(C)CCC[C@]2(C)[C@H]1C/C=C(/C=O)CCO (stereo partly drawn) [Compound 5, (E)-labda-8(17),12-diene-15-ol-16-al]

EC50 (GLP-1 receptor; read-out: EC50 (converted)): 11.6 µM
Compound: C=C1CCC2C(C)(C)CCC[C@]2(C)[C@H]1C/C=C(/C=O)CC(OCC)OCC (stereo partly drawn) [Compound 6, (E)-15,15-diethoxylabda-8(17),12-dien-16-al]

The next lines start with the compound.

Compound: CC1(C)CCC[C@]2(C)[C@H]3CC=C(C=O)C[C@@H](O)[C@]3(C=O)CC[C@@H]12 [Compound 1, Galanal B]
EC50 (GLP-1 receptor; GLP-1 4-8 nM constant, U2OS cells expressing GLP-1R, FIG. 3): 6.603 µg/mL
insulin secretion with exendin-4 (RINm5F cells; exendin-4 2 nM): stimulate more insulin secretions
effect on insulin secretion in the absence of exendin-4 (RINm5F cells): substantially abolished
hypoglycemic effects (normal mice; 40 mg/Kg group): 41%
Blood glucose concentration (normal mice; 40 mg/kg oral, compound 1 purity 70%, 0 minute (before glucose injection)): 120.5 ± 3.8 mg/dL
Blood glucose concentration (normal mice; 40 mg/kg oral, purity 70%, 30 minute after glucose 1.5 g/kg i.p.): 168.2 ± 3.0** mg/dl
Blood glucose concentration (normal mice; 40 mg/kg oral, purity 70%, 60 minute after glucose): 127.0 ± 4.4 mg/dL
Blood glucose concentration (normal mice; 40 mg/kg oral, purity 70%, 90 minute after glucose): 117.3 ± 3.4 mg/dL
hypoglycemic effects (normal mice; 60 mg/Kg group): 45%
Blood glucose concentration (normal mice; 60 mg/kg oral, purity 70%, 0 minute (before glucose injection)): 121.5 ± 3.7 mg/dL
Blood glucose concentration (normal mice; 60 mg/kg oral, purity 70%, 30 minute after glucose): 169.2 ± 3.6** mg/dl
Blood glucose concentration (normal mice; 60 mg/kg oral, purity 70%, 60 minute after glucose): 128.0 ± 4.0 mg/dL
Blood glucose concentration (normal mice; 60 mg/kg oral, purity 70%, 90 minute after glucose): 111.3 ± 2.9* mg/dl
hypoglycemic effects (normal mice; 80 mg/Kg group): 71%
Blood glucose concentration (normal mice; 80 mg/kg oral, purity 70%, 0 minute (before glucose injection)): 120.8 ± 3.7 mg/dL
Blood glucose concentration (normal mice; 80 mg/kg oral, purity 70%, 30 minute after glucose): 154.0 ± 2.5*** mg/dl
Blood glucose concentration (normal mice; 80 mg/kg oral, purity 70%, 60 minute after glucose): 120.3 ± 1.8** mg/dl
Blood glucose concentration (normal mice; 80 mg/kg oral, purity 70%, 90 minute after glucose): 106.7 mg/dL

Compound: C=C1CCC2C(C)(C)CCC[C@]2(C)C1C1C=C(C=O)CC(O)O1 (stereo partly drawn) [Compound 2, 11-hydroxy-8(17),12(E)-labdadien-15,16-dial 11,15-hemiacetal]
EC50 (GLP-1 receptor; read-out: EC50 (converted)): 13.9 µM
insulin secretion with exendin-4 (RINm5F cells; exendin-4 5 nM): stimulate more insulin secretions
effect on insulin secretion in the absence of exendin-4 (RINm5F cells): substantially abolished

Compound: C=C1CCC2C(C)(C)CCCC2(C)C1C1C=C(C=O)CC(O)OO1 (stereo not drawn) [Compound 3, Coronarin B]
EC50 (GLP-1 receptor; read-out: EC50 (converted)): 0.196 µM
GLP-1 potentiator activity (in words) (GLP-1 receptor; summary of FIG. 3 results): most potent
insulin secretion with exendin-4 (RINm5F cells; exendin-4 5 nM): stimulate more insulin secretions
effect on insulin secretion in the absence of exendin-4 (RINm5F cells): substantially abolished

— patent publication US9150482B2 (Development Center for Biotechnology, priority 2012, dated 2015)
